# In patent US20140348819A1, “Methods of Treating Cancer” (Dana-Farber Cancer Institute, Inc., priority 2011, published 2014):
# Assays:
# Format in all cases: cell-based, human
# [1] = tested on: six V600E BRAF melanoma cell lines; test: Screening of recombinant RTK ligands for ability to confer resistance to BRAFi (PLX4720) or MEKi (PD184352) (Table 4); parameters: ability of recombinant RTK ligand to confer resistance / ability of recombinant RTK ligand to confer resistance (screening value): scale not given here
# In short: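 Six V600E BRAF melanoma lines treated with PLX4720 or PD184352 after addition of 22 recombinant RTK ligands, scored for drug resistance. Activation of selected RTKs confirmed by western blotting and high-throughput tyrosine kinase phosphorylation profiling.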
# [2] = tested on: pERK/pAKT; test: High-throughput western analysis of pERK/pAKT re-activation by RTK ligands under BRAFi/MEKi
# [3] = tested on: V600E BRAF melanoma cell lines; test: HGF-induced / stromal resistance of melanoma cell lines to BRAF, MEK and AKT inhibitors and its reversal
substance,measurement,setting,value
"HGF: paracrine cellular growth factor, ligand of the RTK c-MET",ability of recombinant RTK ligand to confer resistance,"[1]; A2058, PD184352 - 1 uM, ligand 0.4 ng/ml",1.02
same,ability of recombinant RTK ligand to confer resistance,"[1]; A2058, PD184352 - 1 uM, ligand 1.6 ng/ml",1.01
same,ability of recombinant RTK ligand to confer resistance,"[1]; A2058, PD184352 - 1 uM, ligand 6.25 ng/ml",1.10
same,ability of recombinant RTK ligand to confer resistance,"[1]; A2058, PD184352 - 1 uM, ligand 25 ng/ml",1.10
same,ability of recombinant RTK ligand to confer resistance,"[1]; A2058, PD184352 - 1 uM, ligand 100 ng/ml",1.66
same,ability of recombinant RTK ligand to confer resistance,"[1]; A2058, PLX4720 - 2 uM, ligand 0.4 ng/ml",1.03
same,ability of recombinant RTK ligand to confer resistance,"[1]; A2058, PLX4720 - 2 uM, ligand 1.6 ng/ml",1.02
same,ability of recombinant RTK ligand to confer resistance,"[1]; A2058, PLX4720 - 2 uM, ligand 6.25 ng/ml",1.12
same,ability of recombinant RTK ligand to confer resistance,"[1]; A2058, PLX4720 - 2 uM, ligand 25 ng/ml",1.32
same,ability of recombinant RTK ligand to confer resistance,"[1]; A2058, PLX4720 - 2 uM, ligand 100 ng/ml",1.49
same,ability of recombinant RTK ligand to confer resistance,"[1]; C32, PD184352 - 1 uM, ligand 0.4 ng/ml",1.10
same,ability of recombinant RTK ligand to confer resistance,"[1]; C32, PD184352 - 1 uM, ligand 1.6 ng/ml",1.08
same,ability of recombinant RTK ligand to confer resistance,"[1]; C32, PD184352 - 1 uM, ligand 6.25 ng/ml",1.29
same,ability of recombinant RTK ligand to confer resistance,"[1]; C32, PD184352 - 1 uM, ligand 25 ng/ml",1.08
same,ability of recombinant RTK ligand to confer resistance,"[1]; C32, PD184352 - 1 uM, ligand 100 ng/ml",1.96
same,ability of recombinant RTK ligand to confer resistance,"[1]; C32, PLX4720 - 2 uM, ligand 0.4 ng/ml",1.04
same,ability of recombinant RTK ligand to confer resistance,"[1]; C32, PLX4720 - 2 uM, ligand 1.6 ng/ml",1.15
same,ability of recombinant RTK ligand to confer resistance,"[1]; C32, PLX4720 - 2 uM, ligand 6.25 ng/ml",1.42
same,ability of recombinant RTK ligand to confer resistance,"[1]; C32, PLX4720 - 2 uM, ligand 25 ng/ml",1.96
same,ability of recombinant RTK ligand to confer resistance,"[1]; C32, PLX4720 - 2 uM, ligand 100 ng/ml",2.01
same,ability of recombinant RTK ligand to confer resistance,"[1]; Colo 829, PD184352 - 1 uM, ligand 0.4 ng/ml",0.96
same,ability of recombinant RTK ligand to confer resistance,"[1]; Colo 829, PD184352 - 1 uM, ligand 1.6 ng/ml",0.99
same,ability of recombinant RTK ligand to confer resistance,"[1]; Colo 829, PD184352 - 1 uM, ligand 6.25 ng/ml",1.12
same,ability of recombinant RTK ligand to confer resistance,"[1]; Colo 829, PD184352 - 1 uM, ligand 25 ng/ml",1.41
same,ability of recombinant RTK ligand to confer resistance,"[1]; Colo 829, PD184352 - 1 uM, ligand 100 ng/ml",1.89
same,ability of recombinant RTK ligand to confer resistance,"[1]; Colo 829, PLX4720 - 2 uM, ligand 0.4 ng/ml",1.00
same,ability of recombinant RTK ligand to confer resistance,"[1]; Colo 829, PLX4720 - 2 uM, ligand 1.6 ng/ml",1.02
same,ability of recombinant RTK ligand to confer resistance,"[1]; Colo 829, PLX4720 - 2 uM, ligand 6.25 ng/ml",1.14
same,ability of recombinant RTK ligand to confer resistance,"[1]; Colo 829, PLX4720 - 2 uM, ligand 25 ng/ml",1.35
same,ability of recombinant RTK ligand to confer resistance,"[1]; Colo 829, PLX4720 - 2 uM, ligand 100 ng/ml",1.71
same,ability of recombinant RTK ligand to confer resistance,"[1]; G-361, PD184352 - 1 uM, ligand 0.4 ng/ml",1.17
same,ability of recombinant RTK ligand to confer resistance,"[1]; G-361, PD184352 - 1 uM, ligand 1.6 ng/ml",1.03
same,ability of recombinant RTK ligand to confer resistance,"[1]; G-361, PD184352 - 1 uM, ligand 6.25 ng/ml",1.19
same,ability of recombinant RTK ligand to confer resistance,"[1]; G-361, PD184352 - 1 uM, ligand 25 ng/ml",1.68
same,ability of recombinant RTK ligand to confer resistance,"[1]; G-361, PD184352 - 1 uM, ligand 100 ng/ml",1.10
same,ability of recombinant RTK ligand to confer resistance,"[1]; G-361, PLX4720 - 2 uM, ligand 0.4 ng/ml",0.97
same,ability of recombinant RTK ligand to confer resistance,"[1]; G-361, PLX4720 - 2 uM, ligand 1.6 ng/ml",1.03
same,ability of recombinant RTK ligand to confer resistance,"[1]; G-361, PLX4720 - 2 uM, ligand 6.25 ng/ml",1.24
same,ability of recombinant RTK ligand to confer resistance,"[1]; G-361, PLX4720 - 2 uM, ligand 25 ng/ml",2.27
same,ability of recombinant RTK ligand to confer resistance,"[1]; G-361, PLX4720 - 2 uM, ligand 100 ng/ml",9.24
same,ability of recombinant RTK ligand to confer resistance,"[1]; SK-MEL-5, PD184352 - 1 uM, ligand 0.4 ng/ml",0.99
same,ability of recombinant RTK ligand to confer resistance,"[1]; SK-MEL-5, PD184352 - 1 uM, ligand 1.6 ng/ml",1.17
same,ability of recombinant RTK ligand to confer resistance,"[1]; SK-MEL-5, PD184352 - 1 uM, ligand 6.25 ng/ml",1.16
same,ability of recombinant RTK ligand to confer resistance,"[1]; SK-MEL-5, PD184352 - 1 uM, ligand 25 ng/ml",1.81
same,ability of recombinant RTK ligand to confer resistance,"[1]; SK-MEL-5, PD184352 - 1 uM, ligand 100 ng/ml",2.32
same,ability of recombinant RTK ligand to confer resistance,"[1]; SK-MEL-5, PLX4720 - 2 uM, ligand 0.4 ng/ml",0.98
same,ability of recombinant RTK ligand to confer resistance,"[1]; SK-MEL-5, PLX4720 - 2 uM, ligand 1.6 ng/ml",1.37
same,ability of recombinant RTK ligand to confer resistance,"[1]; SK-MEL-5, PLX4720 - 2 uM, ligand 6.25 ng/ml",1.35
same,ability of recombinant RTK ligand to confer resistance,"[1]; SK-MEL-5, PLX4720 - 2 uM, ligand 25 ng/ml",1.95
same,ability of recombinant RTK ligand to confer resistance,"[1]; SK-MEL-5, PLX4720 - 2 uM, ligand 100 ng/ml",1.93
same,ability of recombinant RTK ligand to confer resistance,"[1]; SK-MEL-28, PD184352 - 1 uM, ligand 0.4 ng/ml",1.11
same,ability of recombinant RTK ligand to confer resistance,"[1]; SK-MEL-28, PD184352 - 1 uM, ligand 1.6 ng/ml",1.16
same,ability of recombinant RTK ligand to confer resistance,"[1]; SK-MEL-28, PD184352 - 1 uM, ligand 6.25 ng/ml",1.22
same,ability of recombinant RTK ligand to confer resistance,"[1]; SK-MEL-28, PD184352 - 1 uM, ligand 25 ng/ml",1.46
same,ability of recombinant RTK ligand to confer resistance,"[1]; SK-MEL-28, PD184352 - 1 uM, ligand 100 ng/ml",1.87
same,ability of recombinant RTK ligand to confer resistance,"[1]; SK-MEL-28, PLX4720 - 2 uM, ligand 0.4 ng/ml",1.05
same,ability of recombinant RTK ligand to confer resistance,"[1]; SK-MEL-28, PLX4720 - 2 uM, ligand 1.6 ng/ml",1.42
same,ability of recombinant RTK ligand to confer resistance,"[1]; SK-MEL-28, PLX4720 - 2 uM, ligand 6.25 ng/ml",1.55
same,ability of recombinant RTK ligand to confer resistance,"[1]; SK-MEL-28, PLX4720 - 2 uM, ligand 25 ng/ml",3.85
same,ability of recombinant RTK ligand to confer resistance,"[1]; SK-MEL-28, PLX4720 - 2 uM, ligand 100 ng/ml",2.20
same,ability of RTK ligand to confer primary resistance,"[1]; six V600E BRAF melanoma cell lines, BRAFi (PLX4720) or MEKi (PD184352)",confer substantial primary resistance
same,activation of pAKT by HGF over time,[2]; under BRAFi (PLX4720),sustained over time
same,reactivation of pERK by HGF,[2]; under BRAFi (PLX4720),substantially reactivate pERK
same,re-activation of pERK/pAKT,"[2]; under BRAFi (PLX4720), after 1 hour of cytokine treatment, six V600E BRAF melanoma cell lines",reactivate both ERK and AKT
same,reactivation of pERK by HGF,[2]; under MEKi (PD184352),not under MEKi
same,activation of pAKT by RTK ligands,"[2]; under PLX4720, FIG. 10B",activates AKT in every cell lines tested
same,duration of ERK/AKT activation,[2]; under PLX4720 treatment,long lasting
same,"HGF-conferred resistance, BRAFi versus MEKi",[3]; FIG. 11C,better resistance to BRAFi than MEKi
same,HGF-conferred resistance,[3]; combination of BRAFi and AKTi (MK-2206),confers resistance
